# Active and inactive are the calls of the source.
# Legend:
# [1] = luciferase reporter signal suppression in cells – H4 neuroglioma cells, luminescence, dose response (AID 1990); type: functional, cell-based
# [2] = mitochondrial function rescue without frataxin homolog – Friedreich's ataxia, plus single-dose screen, dose response (AID 1465); type: functional;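 also: yeast depleted of Yfh1p frataxin homolog grown on glycerol needing respiration; WST-1 tetrazolium dye reduction as measure of cellular dehydrogenase metabolic activity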
# [3] = target: T1, Histone-lysine N-methyltransferase NSD2 (Homo sapiens, UniProt O96028); type: biochemical
# T1 sequence (O96028 whole entry): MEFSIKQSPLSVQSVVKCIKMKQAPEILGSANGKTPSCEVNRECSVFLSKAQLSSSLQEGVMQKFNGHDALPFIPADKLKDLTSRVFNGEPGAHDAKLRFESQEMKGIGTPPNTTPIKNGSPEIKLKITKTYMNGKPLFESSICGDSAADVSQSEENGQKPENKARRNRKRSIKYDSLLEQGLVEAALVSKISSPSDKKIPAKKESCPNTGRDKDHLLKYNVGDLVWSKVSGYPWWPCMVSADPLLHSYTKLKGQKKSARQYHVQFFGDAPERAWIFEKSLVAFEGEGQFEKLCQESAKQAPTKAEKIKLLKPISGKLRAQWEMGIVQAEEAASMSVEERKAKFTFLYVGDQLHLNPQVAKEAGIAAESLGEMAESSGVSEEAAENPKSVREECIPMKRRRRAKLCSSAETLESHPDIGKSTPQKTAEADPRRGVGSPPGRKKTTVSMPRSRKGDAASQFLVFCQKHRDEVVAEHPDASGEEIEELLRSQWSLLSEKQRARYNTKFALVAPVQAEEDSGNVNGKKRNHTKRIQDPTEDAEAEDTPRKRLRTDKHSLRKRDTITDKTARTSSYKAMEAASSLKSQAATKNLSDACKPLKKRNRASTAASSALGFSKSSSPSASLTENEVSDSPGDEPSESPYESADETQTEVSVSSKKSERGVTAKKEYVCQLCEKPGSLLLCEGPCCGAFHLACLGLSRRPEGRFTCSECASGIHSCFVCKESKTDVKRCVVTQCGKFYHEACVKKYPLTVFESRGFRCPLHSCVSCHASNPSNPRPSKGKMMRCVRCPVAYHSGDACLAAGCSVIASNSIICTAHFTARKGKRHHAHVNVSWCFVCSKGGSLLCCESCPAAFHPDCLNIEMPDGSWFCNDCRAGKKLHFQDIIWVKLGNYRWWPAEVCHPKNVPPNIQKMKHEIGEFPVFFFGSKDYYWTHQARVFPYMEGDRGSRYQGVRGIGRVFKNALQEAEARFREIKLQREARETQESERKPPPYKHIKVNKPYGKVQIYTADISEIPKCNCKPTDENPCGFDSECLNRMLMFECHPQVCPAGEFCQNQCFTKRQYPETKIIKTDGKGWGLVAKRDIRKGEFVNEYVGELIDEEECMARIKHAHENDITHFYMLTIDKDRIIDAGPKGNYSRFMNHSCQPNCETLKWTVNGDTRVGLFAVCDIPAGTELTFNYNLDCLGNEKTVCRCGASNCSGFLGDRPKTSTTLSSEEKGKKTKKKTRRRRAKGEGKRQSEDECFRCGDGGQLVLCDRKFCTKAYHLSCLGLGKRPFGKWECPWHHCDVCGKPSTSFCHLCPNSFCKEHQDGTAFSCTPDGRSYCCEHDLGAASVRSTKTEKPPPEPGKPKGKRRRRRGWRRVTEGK
# BJ [4] = assay: cells; type: functional, cell-based; conditions: Homo sapiens
# [5] = DRD fibroblast viability loss – cell-based, non-viral oncogenic, luminescence, dose response (AID 1934); type: functional; conditions: Homo sapiens
# BJ [6] = assay: growth inhibition of engineered Ras-driven BJ cells – cell-based, alamar blue fluorescence, cherrypicked samples, dose response (AID 2631); type: functional; conditions: Homo sapiens;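 also: confirmatory dose-response assay in RAS-dependent BJ fibroblasts engineered with TERT, LT and ST, with cytotoxicity read by fluorescence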
# [7] = viability loss in Vero cells – cytotoxicity control for Vif-APOBEC3G degradation inhibitor project, dose response (AID 1117358); type: functional; conditions: Vero
# Cytochrome P450 2D6 = Cytochrome P450 2D6 (Homo sapiens, UniProt P10635);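 also: CYP2D6 member of a cytochrome P450 panel assay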
# Cytochrome P450 1A2 = target: T2, Cytochrome P450 1A2 (Homo sapiens, UniProt P05177);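 also: PubChem cytochrome P450 panel assay, CYP1A2 panel member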
# T2 sequence (P05177 whole entry): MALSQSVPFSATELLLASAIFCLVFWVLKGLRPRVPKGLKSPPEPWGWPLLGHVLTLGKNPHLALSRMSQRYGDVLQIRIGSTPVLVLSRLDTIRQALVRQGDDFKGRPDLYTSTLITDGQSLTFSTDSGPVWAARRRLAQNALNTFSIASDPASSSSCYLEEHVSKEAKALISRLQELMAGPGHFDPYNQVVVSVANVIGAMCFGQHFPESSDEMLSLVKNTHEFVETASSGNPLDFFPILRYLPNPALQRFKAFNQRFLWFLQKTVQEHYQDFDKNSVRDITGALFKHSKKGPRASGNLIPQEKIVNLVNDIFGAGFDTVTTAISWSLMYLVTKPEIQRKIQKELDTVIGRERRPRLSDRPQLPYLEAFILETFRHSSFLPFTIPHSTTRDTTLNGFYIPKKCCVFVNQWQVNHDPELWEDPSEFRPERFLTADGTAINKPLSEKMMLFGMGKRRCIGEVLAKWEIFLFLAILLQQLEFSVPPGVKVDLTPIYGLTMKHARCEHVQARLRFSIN
# [8] = target: T3, Tyrosine-protein phosphatase non-receptor type 7 (Homo sapiens, UniProt P35236); assay: SAR analysis of chemical inhibitors of HePTP using a Fluorescent assay - Set 2. [Related pubchem assays (depositor defined):AID1059, AID1077, AID1661, AID2085, AID521]; type: functional
# T3 sequence (P35236 whole entry): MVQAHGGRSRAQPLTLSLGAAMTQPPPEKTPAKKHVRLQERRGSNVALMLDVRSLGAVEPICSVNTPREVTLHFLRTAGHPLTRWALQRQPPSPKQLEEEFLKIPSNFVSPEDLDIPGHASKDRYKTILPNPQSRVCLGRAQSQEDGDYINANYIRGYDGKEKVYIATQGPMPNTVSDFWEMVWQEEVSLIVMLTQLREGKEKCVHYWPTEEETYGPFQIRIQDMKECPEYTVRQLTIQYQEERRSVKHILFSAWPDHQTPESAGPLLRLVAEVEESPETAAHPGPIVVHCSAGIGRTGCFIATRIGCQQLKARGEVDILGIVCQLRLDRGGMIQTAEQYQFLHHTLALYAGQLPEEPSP
# [9] = target: Transitional endoplasmic reticulum ATPase (Homo sapiens, UniProt P55072, C522A); assay: C522A mutant p97 ATPase inhibitors, dose response, counter-screen for p97 inhibitor project, biochemical, luminescence (AID 1544)
# Sequence of Transitional endoplasmic reticulum ATPase (P55072 2-806 C522A limits assumed): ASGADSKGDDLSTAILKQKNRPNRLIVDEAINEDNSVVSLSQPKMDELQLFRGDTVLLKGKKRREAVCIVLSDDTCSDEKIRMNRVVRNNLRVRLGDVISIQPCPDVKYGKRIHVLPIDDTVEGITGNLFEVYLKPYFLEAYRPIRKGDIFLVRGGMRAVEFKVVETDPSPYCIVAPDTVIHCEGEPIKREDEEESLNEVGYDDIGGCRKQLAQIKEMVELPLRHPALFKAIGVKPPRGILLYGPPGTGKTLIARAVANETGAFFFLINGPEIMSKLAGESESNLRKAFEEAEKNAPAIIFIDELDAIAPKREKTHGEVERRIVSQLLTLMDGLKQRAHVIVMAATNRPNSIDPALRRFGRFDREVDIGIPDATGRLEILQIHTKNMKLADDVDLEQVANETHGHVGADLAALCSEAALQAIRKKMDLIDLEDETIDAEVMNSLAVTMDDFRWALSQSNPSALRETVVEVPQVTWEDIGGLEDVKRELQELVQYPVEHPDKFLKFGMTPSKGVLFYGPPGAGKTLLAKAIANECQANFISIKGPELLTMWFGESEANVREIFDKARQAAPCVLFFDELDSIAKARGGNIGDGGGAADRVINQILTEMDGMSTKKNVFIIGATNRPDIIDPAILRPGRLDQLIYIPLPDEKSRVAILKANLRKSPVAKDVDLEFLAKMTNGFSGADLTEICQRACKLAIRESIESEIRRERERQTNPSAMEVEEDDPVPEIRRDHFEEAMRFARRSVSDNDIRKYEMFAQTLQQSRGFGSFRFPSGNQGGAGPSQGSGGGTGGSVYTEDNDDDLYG
# Sequence of Cytochrome P450 2D6 (P10635 whole entry): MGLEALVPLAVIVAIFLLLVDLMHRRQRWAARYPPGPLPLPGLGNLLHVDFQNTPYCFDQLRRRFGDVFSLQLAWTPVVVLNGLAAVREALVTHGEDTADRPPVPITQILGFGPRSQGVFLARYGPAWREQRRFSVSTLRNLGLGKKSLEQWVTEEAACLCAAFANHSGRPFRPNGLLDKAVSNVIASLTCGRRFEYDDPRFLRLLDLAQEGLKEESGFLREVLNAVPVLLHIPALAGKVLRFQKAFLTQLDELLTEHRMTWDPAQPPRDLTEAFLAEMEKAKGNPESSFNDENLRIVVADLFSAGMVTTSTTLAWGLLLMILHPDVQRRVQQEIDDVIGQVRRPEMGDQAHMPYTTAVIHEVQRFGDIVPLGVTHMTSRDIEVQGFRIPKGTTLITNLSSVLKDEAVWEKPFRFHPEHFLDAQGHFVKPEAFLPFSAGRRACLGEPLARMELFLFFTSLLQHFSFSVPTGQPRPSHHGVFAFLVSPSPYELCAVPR
smiles,measurement,setting,value
O=C1C(Nc2ccc(O)cc2)=C/C(=N/S(=O)(=O)c2cccs2)c2ccccc21,EC50,[1],2.88 µM (inconclusive)
same,EC50,[2],> 100 µM (active)
COc1ccc(S(=O)(=O)Nc2cc(SCC(=O)O)c(O)c3ccccc23)cc1,AC50,[3],3.56 µM (active)
O=C(/C=C/c1ccco1)Nc1ccc(Oc2ccccc2)cc1,EC50,BJ [4],21.2 µM (active)
same,EC50,[5],18.1 µM (active)
same,EC50,BJ [6],14.6 µM (active)
same,CC50,[7],> 40 µM (active)
same,AC50,Cytochrome P450 2D6,4.47 µM (inconclusive)
same,AC50,Cytochrome P450 1A2,20 µM (inconclusive)
CCc1nnc(NS(=O)(=O)c2ccc(NC(=S)NC(=O)/C=C/c3ccc(C(C)C)cc3)cc2)s1,IC50,[8],5.99 µM (active)
CC1CC(=O)c2c(cc3c(-c4c(O)cc(O)c5c(O)c6c(cc45)OC(C)CC6=O)c(O)cc(O)c3c2O)O1 (stereo unspecified) [CEPHALOCHROMIN],IC50,[9],> 50 µM (not active)

# Source: ChEMBL document CHEMBL1201862, “PubChem BioAssay data set” (2004)
